System: KRAS-mutant PDC tumor spheroid with HUVEC/MSC, viability
Test: Anticancer human tumor 327498-153-R-J2-PDC patient-derived uterine carcinosarcoma cell line growth inhibition [KRAS2]
Conditions: for IC50: curve of first compound; for viability, T/C: stronger effect = lower value
How it was run: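 KRAS-mutant tumor cells were grown as spheroids with HUVEC endothelial cells and human MSCs as stroma. Targeted agents were tested alone and with KRAS pathway inhibitors. Doses started at or near clinical Cmax, or 10 microM, descending half-log.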

[1] = second compound 0.1 µM, first compound 0.0316 µM
[2] = second compound 0.1 µM, first compound 0.1 µM
[3] = second compound 0.1 µM, first compound 0.316 µM
[4] = second compound 0.1 µM, first compound 1 µM
[5] = second compound 0.1 µM, first compound 3.16 µM
[6] = second compound 0.1 µM, first compound 10 µM
[7] = second compound 0.316 µM, first compound 0.0316 µM
[8] = second compound 0.316 µM, first compound 0.1 µM
[9] = second compound 0.316 µM, first compound 0.316 µM
[10] = second compound 0.316 µM, first compound 1 µM
[11] = second compound 0.316 µM, first compound 3.16 µM
[12] = second compound 0.316 µM, first compound 10 µM
[13] = second compound 1 µM, first compound 0.0316 µM
[14] = second compound 1 µM, first compound 0.1 µM
[15] = second compound 1 µM, first compound 0.316 µM
[16] = second compound 1 µM, first compound 1 µM
[17] = second compound 1 µM, first compound 3.16 µM
[18] = second compound 1 µM, first compound 10 µM
[19] = second compound 3.16 µM, first compound 0.0316 µM
[20] = second compound 3.16 µM, first compound 0.1 µM
[21] = second compound 3.16 µM, first compound 0.316 µM
[22] = second compound 3.16 µM, first compound 1 µM
[23] = second compound 3.16 µM, first compound 3.16 µM
[24] = second compound 3.16 µM, first compound 10 µM
[25] = second compound 10 µM, first compound 0.0316 µM
[26] = second compound 10 µM, first compound 0.1 µM
[27] = second compound 10 µM, first compound 0.316 µM
[28] = second compound 10 µM, first compound 1 µM
[29] = second compound 10 µM, first compound 3.16 µM
[30] = second compound 10 µM, first compound 10 µM
[31] = second compound 0.0316 µM, first compound 0.0316 µM
[32] = second compound 0.0316 µM, first compound 0.1 µM
[33] = second compound 0.0316 µM, first compound 0.316 µM
[34] = second compound 0.0316 µM, first compound 1 µM
[35] = second compound 0.0316 µM, first compound 3.16 µM
[36] = second compound 0.0316 µM, first compound 10 µM
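Note: spheroids exposed to agents for seven days before reading.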
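Throughout, for viability, T/C: 100% = DMSO vehicle wells so lower means fewer viable cells.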

SMILES | IC50 (second compound 0.1 µM) | IC50 (second compound 0.316 µM) | IC50 (second compound 1 µM) | IC50 (second compound 3.16 µM) | viability, T/C [1] | viability, T/C [2] | viability, T/C [3] | viability, T/C [4] | viability, T/C [7] | viability, T/C [8] | viability, T/C [9] | viability, T/C [10] | viability, T/C [13] | viability, T/C [14] | viability, T/C [15] | viability, T/C [16] | viability, T/C [19] | viability, T/C [20] | viability, T/C [21] | viability, T/C [22] | other results
O=C(c1cc(Cc2n[nH]c(=O)c3ccccc23)ccc1F)N1CCN(C(=O)C2CC2)CC1 + COc1cc2nc(C)nc(NC(C)c3cc(N)cc(C(F)(F)F)c3)c2cc1OC1CCOC1 | 2220 nM | 1750 nM | 2470 nM | 1740 nM | 84.2% | 107% | 89.7% | 78.7% | 77.2% | 79.2% | 81.9% | 68.5% | 109% | 104% | 102% | 94.6% | 78.4% | 77.3% | 76.1% | 66.3% | IC50 (second compound 10 µM): 719 nM; viability, T/C [5]: 37.3%; viability, T/C [6]: 20.7%; viability, T/C [11]: 30.3%; viability, T/C [12]: 15.9%; viability, T/C [17]: 37.8%; viability, T/C [18]: 18.7%; viability, T/C [23]: 32.5%; viability, T/C [24]: 18.5%; viability, T/C [25]: 99.8%; viability, T/C [26]: 61%; viability, T/C [27]: 63%; viability, T/C [28]: 56.9%; viability, T/C [29]: 25.3%; viability, T/C [30]: 14.7%
CCN1CCN(Cc2ccc(Nc3ncc(F)c(-c4cc(F)c5nc(C)n(C(C)C)c5c4)n3)nc2)CC1 + CNCc1ccccc1-c1csc(C(C)Nc2nc(C)nc3cc(OC)c(OC)cc23)c1 | 42.9 nM | 13.1 nM | 9.26 nM | < 3.16 nM | 52.9% | 37.5% | 41.7% | 47% | 41.3% | 35.5% | 39.6% | 43.9% | 36.4% | 34.5% | 36.2% | 21.8% | 0.11% | 0.06% | 0.24% | 0.25% | IC50 (second compound 10 µM): < 3.16 nM; viability, T/C (second compound 0.1 µM, first compound 0.00316 µM): 65.2%; viability, T/C (second compound 0.1 µM, first compound 0.01 µM): 58.8%; viability, T/C (second compound 0.316 µM, first compound 0.00316 µM): 69.4%; viability, T/C (second compound 0.316 µM, first compound 0.01 µM): 52.8%; viability, T/C (second compound 1 µM, first compound 0.00316 µM): 72.7%; viability, T/C (second compound 1 µM, first compound 0.01 µM): 46.9%; viability, T/C (second compound 3.16 µM, first compound 0.00316 µM): 0.58%; viability, T/C (second compound 3.16 µM, first compound 0.01 µM): 0.79%; viability, T/C (second compound 10 µM, first compound 0.00316 µM): 0.56%; viability, T/C (second compound 10 µM, first compound 0.01 µM): 0.69%; viability, T/C [25]: 0.91%; viability, T/C [26]: 0.68%; viability, T/C [27]: 0.69%; viability, T/C [28]: 0.69%
O=C(c1cc(Cc2n[nH]c(=O)c3ccccc23)ccc1F)N1CCN(C(=O)C2CC2)CC1 + C=CC(=O)N1CCN(c2nc(OCC3CCCN3C)nc3c2CCN(c2cccc4cccc(C)c24)C3)CC1CC#N | 711 nM | 490 nM | 195 nM | < 31.6 nM | 61.5% | 58.4% | 56.4% | 47.5% | 58.8% | 56.6% | 51.2% | 44.2% | 47.8% | 56.3% | 47.1% | 38.8% | 2.26% | 2.16% | 2.51% | 2.55% | IC50 (second compound 0.0316 µM): 1010 nM; viability, T/C [31]: 64.1%; viability, T/C [32]: 74.5%; viability, T/C [33]: 104%; viability, T/C [34]: 50.3%; viability, T/C [35]: 26.2%; viability, T/C [36]: 16.8%; viability, T/C [5]: 25.6%; viability, T/C [6]: 15.7%; viability, T/C [11]: 20.2%; viability, T/C [12]: 14.4%; viability, T/C [17]: 19.2%; viability, T/C [18]: 13.8%; viability, T/C [23]: 3.25%; viability, T/C [24]: 0.24%
COC(=O)c1ccc2c(C(=Nc3ccc(N(C)C(=O)CN4CCN(C)CC4)cc3)c3ccccc3)c(O)[nH]c2c1 |  |  |  |  |  |  |  |  |  |  |  |  |  |  |  |  |  |  |  |  | viability, T/C (compound 0.0316 µM): 89.5% [middle of 5 runs]; viability, T/C (compound 0.1 µM): 94.6% [middle of 5 runs]; viability, T/C (compound 0.316 µM): 84.9% [middle of 5 runs]
CC1OCC2(CCN(c3cnc(Sc4ccnc(N)c4Cl)c(N)n3)CC2)C1N (stereo not drawn) + CNCc1ccccc1-c1csc(C(C)Nc2nc(C)nc3cc(OC)c(OC)cc23)c1 | 136 nM | 109 nM | 100 nM | < 31.6 nM | 75.4% | 52.6% | 41.2% | 34.2% | 61.4% | 51.8% | 36% | 31% | 65.7% | 50.1% | 39.9% | 31.9% | 0.11% | 0.09% | 0.08% | 0.06% | IC50 (second compound 10 µM): < 31.6 nM; viability, T/C [5]: 30.9%; viability, T/C [6]: 27.7%; viability, T/C [11]: 28%; viability, T/C [12]: 24.6%; viability, T/C [17]: 31.7%; viability, T/C [18]: 27.5%; viability, T/C [23]: 0.06%; viability, T/C [24]: 0.17%; viability, T/C [25]: 0.13%; viability, T/C [26]: 0.18%; viability, T/C [27]: 0.13%; viability, T/C [28]: 0.43%; viability, T/C [29]: 0.13%; viability, T/C [30]: 0.22%
Cn1nccc1Nc1nccc(-c2cc3c(s2)C(C)(C)N(CCN2CCOCC2)C3=O)n1 + C=CC(=O)N1CCN(c2nc(OCC3CCCN3C)nc3c2CCN(c2cccc4cccc(C)c24)C3)CC1CC#N | 227 nM | < 31.6 nM | < 31.6 nM | < 31.6 nM | 60.2% | 62.1% | 45.5% | 33% | 42.9% | 45% | 37.6% | 33.6% | 39.6% | 31.1% | 29.7% | 33.3% | 0.15% | 0.17% | 0.15% | 0.16% | IC50 (second compound 0.0316 µM): 422 nM; viability, T/C [31]: 62.5%; viability, T/C [32]: 54.6%; viability, T/C [33]: 55.6%; viability, T/C [34]: 25.2%; viability, T/C [35]: 40.4%; viability, T/C [36]: 34.7%; viability, T/C [5]: 36.2%; viability, T/C [6]: 28.8%; viability, T/C [11]: 31.1%; viability, T/C [12]: 27.6%; viability, T/C [17]: 30.3%; viability, T/C [18]: 21.3%; viability, T/C [23]: 0.54%; viability, T/C [24]: 0.21%

Reference: PubChem BioAssay AID1963867 (Molecular Pharmacology Branch, DTP, NCI, 2024)
